The source of these data is patent US10035819B2, “PPAR agonists and methods of use thereof” (The Salk Institute for Biological Studies, priority 2014, dated 2018).

For one data set, the system named is AKO mice. The data set is described as follows: GW treatment in mouse model of ALD (AKO mice), fatty acid analysis by GC/MS and gene expression. Type of data set: in vivo. The source says:
ALD is a rare genetic disorder caused by defects in peroxisomal oxidation of very long-chain fatty acids (VLCFAs), resulting in systemic accumulation of VLCFAs, which causes tissue defects mainly in the central nervous system and the adrenal glands. The majority of VLCFAs in the body are endogenously synthesized from long-chain fatty acids (LCFAs). Therefore, one potential way to prevent VLCFA accumulation in ALD is by inducing mitochondrial LCFA oxidation to reduce the availability of LCFAs for VLCFA biosynthesis. In order to test this, a previously described mouse model of ALD was used, in which the X-linked adrenoleukodystrophy gene abcdl was systemically ablated and the knockout (AKO) mice faithfully recapitulated the abnormal VLCFA accumulation phenotype seen in ALD patients.
3-month-old AKO mice were treated with or without GW and their tissues collected for free FA analysis using GC/MS.

A short description of data set [1]: Solubility (kinetic, thermodynamic). Format: physicochemical.
Data set [2] is classed as in vitro ADME. Conditions: MLM.
A short description of a further data set: % Parent remained in HLM. Type of data set: in vitro ADME.
A short description of data set [3]: Pharmacokinetics in male CD-1 mice (i.v. and p.o.). Type of data set: in vivo. Conditions: CD-1 mice; for Vd: CD-1, mouse, 3 mg/kg. How it is done:
The oral bioavailability and serum half lives of PPARδ ligands were compared in mice. The pharmacokinetics of PPARδ ligands delivered orally (10 mg/kg p.o.) and intravenously (3 mg·kg i.v.) were determined by mass spectrometry.
In this example, the PK profile of several PPARδ agonists disclosed herein in male CD-1 mice or Wistar rats was determined. Similar methods can be used to analyze other compounds provided herein.
(quantity sufficient ie made up to a final volume of 100% with water). All compounds were separately administered to CD-1 mice at 3 mg/kg iv or 10 mg/kg po.
The concentration of the compound in plasma was determined, as illustrated in FIGS. 9A-9E.

The target in a further data set is T1, Human PPARδ LBD (Homo sapiens, UniProt Q03181).
T1 construct: (PPARδ amino acid 128 to C-terminus); expressed in transfected cells; host or cells: CV-1 cells
T1 sequence (Q03181 128-441 limits assumed): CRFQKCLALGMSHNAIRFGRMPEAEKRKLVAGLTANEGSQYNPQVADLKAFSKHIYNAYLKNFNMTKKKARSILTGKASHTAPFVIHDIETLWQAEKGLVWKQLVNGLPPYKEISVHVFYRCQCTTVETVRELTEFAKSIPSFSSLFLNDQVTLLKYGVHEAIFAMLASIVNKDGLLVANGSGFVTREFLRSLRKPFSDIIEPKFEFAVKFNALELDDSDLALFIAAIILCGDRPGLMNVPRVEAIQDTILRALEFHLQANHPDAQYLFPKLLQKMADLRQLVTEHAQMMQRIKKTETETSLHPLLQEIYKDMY
Kind of data set: PPARδ activity screen (GAL4-PPARδ LBD luciferase transactivation in CV-1 cells). Type of data set: cell-based. How it is done:
Cell Culture and Transfection: CV-1 cells were grown in DMEM+10% charcoal stripped FCS. Cells were seeded into 384-well plates the day before transfection to give a confluency of 50-80% at transfection. A total of […] containing 0.64 micrograms pCMX-PPARDelta LBD, 0.1 micrograms pCMXβGal, 0.08 micrograms pGLMH2004 reporter and 0.02 micrograms pCMX empty vector was transfected per well using FuGene transfection reagent according to the manufacturer's instructions (Roche).
Plasmids: Human PPARδ was used to PCR amplify the PPARδ LBD. […] Ensuing fusions were verified by sequencing.
Compounds: All compounds were dissolved in DMSO and diluted 1:1000 upon addition to the cells. Compounds were tested in quadruple in concentrations ranging from 0.001 to 100 μM. […] Each compound was tested in at least two separate experiments.
Luciferase assay: Medium including test compound was aspirated and washed with PBS. 50 μl PBS including 1 mM Mg++ and Ca++ were then added to each well. The luciferase assay was performed using the LucLite kit according to the manufacturer's instructions (Packard Instruments). Light emission was quantified by counting on a Perkin Elmer Envision reader. […] Beta-galactosidase assays were performed in the microwell plates using a kit from Promega and read in a Perkin Elmer Envision reader. The beta-galactosidase data were used to normalize (transfection efficiency, cell growth etc.) the luciferase data.
Statistical Methods: The activity of a compound is calculated as fold induction compared to an untreated sample. […] EC50 values were calculated via non-linear regression using GraphPad PRISM (GraphPad Software, San Diego, Calif.).

The next data set deals with T2, PPARδ (Homo sapiens, UniProt Q03181).
T2 construct: expressed in transfected cells; host or cells: PathHunter NHR cell lines
T2 sequence (Q03181 1-441): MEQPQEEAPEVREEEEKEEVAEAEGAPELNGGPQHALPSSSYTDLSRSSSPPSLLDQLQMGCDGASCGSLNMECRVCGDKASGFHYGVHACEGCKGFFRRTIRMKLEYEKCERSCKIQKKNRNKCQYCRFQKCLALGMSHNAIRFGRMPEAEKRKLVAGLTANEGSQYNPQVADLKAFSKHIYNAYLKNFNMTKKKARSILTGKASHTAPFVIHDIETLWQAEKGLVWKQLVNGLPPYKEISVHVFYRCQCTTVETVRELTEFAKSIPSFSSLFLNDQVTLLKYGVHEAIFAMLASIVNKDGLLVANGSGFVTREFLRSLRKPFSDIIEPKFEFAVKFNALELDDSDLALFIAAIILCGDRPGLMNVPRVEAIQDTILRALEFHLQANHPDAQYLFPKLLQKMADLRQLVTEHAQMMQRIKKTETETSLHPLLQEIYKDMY
Kind of data set: Nuclear Hormone Receptor (NHR) protein interaction assay (PathHunter), agonist format. Type of data set: cell-based. How it is done:
• Cell Handling: PathHunter NHR cell lines were expanded from freezer stocks according to standard procedures. Cells were seeded in a total volume of 20 μL into white walled, 384-well microplates and incubated at 37° C. for the appropriate time prior to testing. Assay media contained charcoal-dextran filtered serum to reduce the level of hormones present. • Agonist Format: For agonist determination, cells were incubated with sample to induce response. Intermediate dilution of sample stocks was performed to generate 5× sample in assay buffer. 5 μL of 5× sample was added to cells and incubated at 37° C. or room temperature for 3-16 hours. Final assay vehicle concentration was 1%. • Antagonist Format: For antagonist determination, cells were pre-incubated with antagonist followed by agonist challenge at the EC80 concentration. Intermediate dilution of sample stocks was performed to generate 5× sample in assay buffer. 5 μL of 5× sample was added to cells and incubated at 37° C. or room temperature for 60 minutes. Vehicle concentration was 1%. […] Microplates were read following signal generation with a PerkinElmer Envision™ instrument for chemiluminescent signal detection. • Data Analysis: Compound activity was analyzed using CBIS data analysis suite (ChemInnovation, CA). For agonist mode assays, percentage activity was calculated using the following formula: % Activity=100%×(mean RLU of test sample−mean RLU of vehicle control)/(mean MAX control ligand−mean RLU of vehicle control).
For antagonist mode assays, percentage inhibition was calculated using the following formula: % Inhibition=100%×(1−(mean RLU of test sample−mean RLU of vehicle control)/(mean RLU of EC80 control−mean RLU of vehicle control)). Note that for select assays, the ligand response produces a decrease in receptor activity (inverse agonist with a constitutively active target). For those assays inverse agonist activity was calculated using the following formula: % Inverse Agonist Activity=100%×((mean RLU of vehicle control−mean RLU of test sample)/(mean RLU of vehicle control−mean RLU of MAX control)).

Setting [4] is: male, mouse, iv, 3 mg/Kg i.v., plasma.
[5] abbreviates: male, mouse, po, 10 mg/Kg p.o., plasma.
Setting [6] is: Table 1, CV-1 cells, GAL4-PPARδ LBD luciferase reporter, compound 24 h, read-out: EC50.
Where [7] appears, read: Table 15, read-out: PPARd, EC50 (nM) (from Salk).
[8] abbreviates: PathHunter NHR cell line, agonist format, read-out: NHR protein interaction assay, EC50 (nM) for PPARδ.

≈ marks a conversion by molar mass, not a printed value. Read-outs that look alike come from different tables or passages of the source.

As for `Cc1cc(SCc2sc(-c3ccc(C(F)(F)F)cc3)nc2C)ccc1OCC(=O)O` [GW], in the data set on AKO mice (8 weeks of GW treatment, 3-month-old AKO mice), the “levels of VLCFAs (C22:0, C23:0, C24:0, C26:0) in AKO brain and liver” value was “significantly reduced”. Moreover, in the data set on AKO mice (8 weeks of GW treatment, most GW-treated animals), the “liver C26:0” value is “cleared”. In addition, the “most saturated LCFAs (C12:0 to C22:0) and total FAs” value in the data set with AKO mice (AKO liver and muscle) is “significantly reduced”. Moreover, the “expression of mitochondrial FA oxidation genes (Cptla and lb, Slc25a20, Acadl)” value with AKO mice (AKO liver and skeletal muscle) was “dramatically induced”.

On to `O=C(O)CCCCCOc1ccccc1CN(C(=O)c1ccc(-c2ccco2)cc1)C1CC1` [compound 12], for which, in data set [1] (kinetic from dmso stock), the solubility (kinetic) was 6 µM (≈ 2.69 µg/mL). The compound further registered a thermodynamic solubility in data set [1] (thermodynamic from solid) of 253 µM (≈ 113 µg/mL). In addition, the “% Parent remained at 15 min, MLM” value in data set [2] (15 min) is reported as 59%. Further, the “% Parent remained at 60 min, MLM” value in data set [2] (60 min) is 19%. Further, the “% Parent remained at 15 min, HLM” value in the data set “% Parent remained in HLM” (15 min) is recorded as 92%. For the same compound, the “% Parent remained at 60 min, HLM” value in “% Parent remained in HLM” (60 min) is 64%. Besides, in data set [3] (3 mg/Kg i.v., plasma), the Cl was 194.938 mL/min/kg and the Kel was 3.85 h⁻¹. In addition, in data set [3] (10 mg/Kg p.o. vs 3 mg/Kg i.v.), the F is given as around 22%. The Vd in data set [3] (male, plasma, iv, 3 mg/Kg i.v., plasma, read-out: Vss) is 1.58 L/kg. Moreover, the Vd in data set [3] (male, plasma, iv, 3 mg/Kg i.v., plasma, read-out: Vz) came out at 3.03 L/kg. In data set [3] (setting [4]), this compound gave an AUC(0-inf) of 256 ng·h/mL, a C0 of 1940 ng/mL and an MRT of 7.2 min. In addition, the half-life in data set [3] (male, mouse, iv, 3 mg/Kg i.v., plasma, read-out: Beta T1/2 (converted)) is 10.8 min. Further, in data set [3] (setting [5]), the AUC(0-inf) was determined as 187 ng·h/mL, the Cmax was found to be 129 ng/mL and the Tmax was 30 min. In data set [3] (male, mouse, po, 10 mg/Kg p.o., plasma, read-out: T1/2 (converted)), the half-life is 156 min.

Turning to `CC(C)N(Cc1ccccc1OCCCCCC(=O)O)C(=O)c1ccc(-c2ccccc2)cc1` [compound 57], the EC50 on Human PPARδ LBD (EC50 nM, Table 1, CV-1 cells, GAL4-PPARδ LBD luciferase reporter, compound 24 h) worked out at 60 nM; at Human PPARδ LBD (PPARd, EC50 (nM) (from Salk), Table 15), 42 nM; at PPARδ, 25.9 nM.

In the case of `CC(C)N(Cc1ccccc1OCCCCCC(=O)O)C(=O)c1ccc(-c2ccco2)cc1` [compound 61], the EC50 at Human PPARδ LBD (setting [6]) was 9 nM; on Human PPARδ LBD (setting [7]) it was 9 nM; on PPARδ (setting [8]), 5.9 nM.

For `CC(C)N(Cc1ccccc1OCCCCCC(=O)O)C(=O)c1ccc(-c2ccoc2)cc1` [compound 62], the EC50 worked out at 61 nM on Human PPARδ LBD (setting [6]), 61 nM on Human PPARδ LBD (setting [7]) and 36.8 nM on PPARδ (setting [8]).

Take `CC(C)N(Cc1ccccc1OCCCCCC(=O)O)C(=O)c1ccc(-c2ccsc2)cc1` [compound 64]: the EC50 on Human PPARδ LBD (setting [6]) was found to be 17.2 nM; on Human PPARδ LBD (setting [7]) it was 17.2 nM; on PPARδ (setting [8]) it was 8.02 nM.

For orientation: solubility (kinetic) means solubility judged after dilution from a stock solution rather than from solid. By thermodynamic solubility is commonly meant the concentration in solution at equilibrium with solid. The term AUC(0-inf) denotes total exposure, with the tail of the curve extrapolated. The term MRT denotes the average time that molecules of a dose stay in the body. In general, Cmax refers to the peak of the concentration-time curve. In general, Tmax refers to the time from dosing to the highest level. What is called EC50 is the midpoint of the concentration-response curve.
